Source: US20240308968A1, “FUNGICIDAL SUBSTITUTED HETEROCYCLES” (FMC Corporation, priority 2021, published 2024)

Key:
Alternaria solani = assay: Test F: preventive spray on tomato seedlings, tomato early blight disease rating; assay type: in vivo; settings: 50 ppm, 100 = 100% disease control, 0 = no control; for pest or weed control at 50 ppm: Alternaria solani, 120 h
How it was run: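 Tomato seedlings were sprayed to run-off with compound suspensions in ppm (acetone/water with PEG400 surfactant) and inoculated with Alternaria solani spores the next day. Plants were held 48 h saturated at 27 °C, then 3 days at 20 °C. Disease was rated visually, with 100 as full control and 0 as none, relative to controls.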

Zymoseptoria tritici = assay: Test A: preventive spray on wheat seedlings, wheat leaf blotch disease rating; assay type: in vivo; settings: 50 ppm, 100 = 100% disease control, 0 = no control; for pest or weed control at 50 ppm: Zymoseptoria tritici, 456 h
How it was run: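 Compounds in acetone/water (50/50) with 50–250 ppm PEG400, sprayed to run-off on wheat seedlings. Inoculated next day with Z. tritici spores, 48 h saturated atmosphere at 24 °C, then 17 days at 20 °C before disease rating.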

[1] = tested on: Blumeria graminis f. sp. Tritici; assay: Test C: preventive spray on wheat seedlings, wheat powdery mildew disease rating; assay type: in vivo; settings: 50 ppm, 100 = 100% disease control, 0 = no control; for pest or weed control at 50 ppm: Blumeria graminis, 192 h
How it was run: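 Wheat seedlings sprayed to run-off with test suspension (acetone 3% dissolution, then acetone/water 50/50 with 50–250 ppm PEG400), inoculated next day with Blumeria graminis spore dust. Held 8 days at 20° C in growth chamber, then visually rated (100 = full control, 0 = none, relative to controls).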

[2] = tested on: Puccinia recondita f. sp. Tritici; assay: Test B: preventive spray on wheat seedlings, wheat leaf rust disease rating; assay type: in vivo; settings: 50 ppm, 100 = 100% disease control, 0 = no control; for pest or weed control at 50 ppm: Puccinia recondita, 192 h
How it was run: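 Compounds in acetone/water (50/50) with 50-250 ppm PEG400 sprayed to run-off on wheat seedlings; inoculated with P. recondita spores next day. Held 24 h saturated at 20° C., then 7 days in growth chamber at 20° C. before rating; 100 = full control, 0 = none versus controls.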

Phakopsora pachyrhizi = assay: Test D: preventive spray on soybean seedlings, Asian soybean rust disease rating; assay type: in vivo; settings: 50 ppm, 100 = 100% disease control, 0 = no control; for pest or weed control at 50 ppm: Phakopsora pachyrhizi, 216 h
How it was run: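 Compounds in acetone/water (50/50) with 50–250 ppm PEG400 sprayed to run-off on soybean seedlings; inoculated next day with P. pachyrhizi spores, held 24 h saturated at 22° C, then 8 days at 22° C before visual disease rating.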

Botrytis cinerea = assay: Test E: preventive spray on tomato seedlings, tomato Botrytis disease rating; assay type: in vivo; settings: 50 ppm, 100 = 100% disease control, 0 = no control; for pest or weed control at 50 ppm: Botrytis cinerea, 120 h
How it was run: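 Tomato seedlings sprayed to run-off with compound suspended in acetone/water with PEG400 surfactant, then inoculated next day with Botrytis cinerea spores. Held 48 h saturated at 20 °C, then 3 days at 24 °C; disease rated visually, 0 to 100% control relative to controls.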

Compound | pest or weed control at 50 ppm (Alternaria solani) [%] | pest or weed control at 50 ppm (Zymoseptoria tritici) [%] | melting point [°C] | pest or weed control at 50 ppm [1] [%] | pest or weed control at 50 ppm [2] [%] | pest or weed control at 50 ppm (Phakopsora pachyrhizi) [%] | pest or weed control at 50 ppm (Botrytis cinerea) [%] | Test F disease control rating (Alternaria solani) [%] | Test A disease control rating (Zymoseptoria tritici) [%] | Test C disease control rating [1] [%] | Test B disease control rating [2] [%] | Test D disease control rating (Phakopsora pachyrhizi) [%] | Test E disease control rating (Botrytis cinerea) [%]
COc1cc(OC)cc(-n2nc(C)c(=O)c(C)c2-c2ccc(F)cc2F)c1 [Compound 29, 6-(2,4-difluorophenyl)-1-(3,5-dimethoxyphenyl)-3,5-dimethyl-4(1H)-pyridazinone] | 100 | 100 | 124 to 127 | 100 | 100 | 99 | 98 |  |  |  |  |  | 
COc1cc(OC)c(Cl)c(-c2noc(=O)c(C)c2-c2ccc(F)cc2Cl)c1 [Compound 64, 3-(2-chloro-3,5-dimethoxyphenyl)-4-(2-chloro-4-fluorophenyl)-5-methyl-6H-1,2-oxazin-6-one] | 99 | 97 | 161 to 164 | 98 | 100 | 99 | 91 |  |  |  |  |  | 
COc1cc(OC)cc(-c2cc(C#N)c(=O)n(C)c2-c2c(F)cc(F)cc2F)c1 [Compound 67, 1,2-dihydro-5-(3,5-dimethoxyphenyl)-1-methyl-2-oxo-6-(2,4,6-trifluorophenyl)-3-pyridinecarbonitrile] | 98 | 100 | 180 to 183 | 84 | 100 | 92 | 98 |  |  |  |  |  | 
COc1cc(OC)c(Cl)c(-c2cc(C#N)c(=O)n(C)c2-c2c(F)cc(F)cc2F)c1 [Compound 68, 5-(2-chloro-3,5-dimethoxyphenyl)-1,2-dihydro-1-methyl-2-oxo-6-(2,4,6-trifluorophenyl)-3-pyridinecarbonitrile] | 99 | 100 | 159 to 162 | 99 | 100 | 100 | 93 |  |  |  |  |  | 
CCn1c(-c2c(F)cc(F)cc2F)c(-c2cc(OC)cc(OC)c2)cc(C#N)c1=O [Compound 69, 1,2-dihydro-5-(3,5-dimethoxyphenyl)-1-ethyl-2-oxo-6-(2,4,6-trifluorophenyl)-3-pyridinecarbonitrile] | 99 | 100 | 185 to 187 | 99 | 100 | 86 | 93 |  |  |  |  |  | 
CCn1c(-c2c(F)cc(F)cc2F)c(-c2cc(OC)cc(OC)c2Cl)cc(C#N)c1=O [Compound 70, 5-(2-chloro-3,5-dimethoxyphenyl)-1,2-dihydro-1-ethyl-2-oxo-6-(2,4,6-trifluorophenyl)-3-pyridinecarbonitrile] | 98 | 100 | 171 to 173 | 99 | 100 | 100 | 96 |  |  |  |  |  | 
COc1cc(OC)c(Cl)c(-n2nc(Cl)c(=O)c(C)c2-c2ccc(F)cc2Cl)c1 [Compound 92, 3-chloro-6-(2-chloro-4-fluorophenyl)-1-(2-chloro-3,5-dimethoxyphenyl)-5-methyl-4(1H)-pyridazinone] | 99 | 100 | 192 to 195 | 99 | 100 | 100 | 96 |  |  |  |  |  | 
CCOC(=O)c1nn(-c2cc(OC)cc(OC)c2)c(-c2ccc(F)cc2)c(C(=O)OCC)c1=O [Compound 125] |  |  |  |  |  |  |  | 0 | 3 | 0 | 28 | 0 | 0
CCOC(=O)c1nn(-c2cc(OC)cc(OC)c2Cl)c(-c2ccc(F)cc2)c(C(=O)OCC)c1=O [Compound 126] |  |  |  |  |  |  |  | 0 | 0 | 0 | 28 | 0 | 0
CCOC(=O)c1nn(-c2cc(OC)cc(OC)c2Cl)c(-c2ccc(F)cc2F)c(C(=O)OCC)c1=O [Compound 127] |  |  |  |  |  |  |  | 0 | 0 | 0 | 41 | 0 | 0
COc1ccc(-c2c(Cl)c(=O)c(C)nn2-c2cc(OC)ccc2Cl)c(Cl)c1 [Compound 129] |  |  |  |  |  |  |  | 100 | 100 | 99 | 100 | 99 | 98
COc1ccc(-c2c(Br)c(=O)c(C)nn2-c2cc(OC)ccc2Cl)c(Cl)c1 [Compound 130] |  |  |  |  |  |  |  | 100 | 100 | 99 | 100 | 98 | 99
COc1ccc(Cl)c(-n2nc(Cl)c(=O)c(Br)c2-c2ccc(F)cc2Cl)c1 [Compound 134] |  |  |  |  |  |  |  | 99 | 100 | 86 | 100 | 100 | 99
COc1ccc(Cl)c(-n2nc(NC(C)=O)c(=O)cc2-c2ccc(F)cc2Cl)c1 [Compound 135] |  |  |  |  |  |  |  | 0 | 41 | 0 | 89 | 0 | 94
COc1ccc(Cl)c(-n2nc(Br)c(=O)cc2-c2ccc(F)cc2Cl)c1 [Compound 136] |  |  |  |  |  |  |  | 0 | 82 | 68 | 99 | 0 | 99
COc1ccc(Cl)c(-c2cc(C)nc(C)c2-c2ccc(F)cc2Cl)c1 [Compound 138, 3-(2-chloro-4-fluorophenyl)-4-(2-chloro-5-methoxyphenyl)-2,6-dimethylpyridine] |  |  | 106 to 108 |  |  |  |  |  |  |  |  |  | 
COc1cc(OC)cc(-c2cc(C#N)c(=O)n(N)c2-c2c(F)cc(F)cc2F)c1 [Compound 153] |  |  |  |  |  |  |  | 0 | 0 | 0 | 80 | 0 | 0
COc1ccc(Cl)c(-c2cc(C#N)c(=O)n(C)c2-c2ccc(F)cc2Cl)c1 [Compound 154] |  |  |  |  |  |  |  | 0 | 100 | 35 | 98 | 59 | 98
CCn1c(-c2ccc(F)cc2Cl)c(-c2cc(OC)cc(OC)c2)cc(C#N)c1=O [Compound 155] |  |  |  |  |  |  |  | 0 | 8 | 0 | 89 | 0 | 92
COc1cc(OC)cc(-c2cc(C#N)c(=O)n(C)c2-c2ccc(F)cc2Cl)c1 [Compound 158] |  |  |  |  |  |  |  | 0 | 0 | 0 | 68 | 0 | 40
CCn1c(-c2ccc(F)cc2Cl)c(-c2cc(OC)ccc2Cl)cc(C#N)c1=O [Compound 159] |  |  |  |  |  |  |  | 94 | 100 | 27 | 100 | 77 | 99
